# Reference: patent EP1975159A1, “2,3,4,9-Tetrahydro-1H-carbazoles” (Bayer Schering Pharma Aktiengesellschaft, priority 2007, dated 2008)
# Molecular target: T1, human FSH receptor (Homo sapiens, UniProt P23945)
# T1 construct: expressed in transfected cells; host or cells: CHO cells (hFSHR clone 16)
# T1 sequence (P23945 18-695): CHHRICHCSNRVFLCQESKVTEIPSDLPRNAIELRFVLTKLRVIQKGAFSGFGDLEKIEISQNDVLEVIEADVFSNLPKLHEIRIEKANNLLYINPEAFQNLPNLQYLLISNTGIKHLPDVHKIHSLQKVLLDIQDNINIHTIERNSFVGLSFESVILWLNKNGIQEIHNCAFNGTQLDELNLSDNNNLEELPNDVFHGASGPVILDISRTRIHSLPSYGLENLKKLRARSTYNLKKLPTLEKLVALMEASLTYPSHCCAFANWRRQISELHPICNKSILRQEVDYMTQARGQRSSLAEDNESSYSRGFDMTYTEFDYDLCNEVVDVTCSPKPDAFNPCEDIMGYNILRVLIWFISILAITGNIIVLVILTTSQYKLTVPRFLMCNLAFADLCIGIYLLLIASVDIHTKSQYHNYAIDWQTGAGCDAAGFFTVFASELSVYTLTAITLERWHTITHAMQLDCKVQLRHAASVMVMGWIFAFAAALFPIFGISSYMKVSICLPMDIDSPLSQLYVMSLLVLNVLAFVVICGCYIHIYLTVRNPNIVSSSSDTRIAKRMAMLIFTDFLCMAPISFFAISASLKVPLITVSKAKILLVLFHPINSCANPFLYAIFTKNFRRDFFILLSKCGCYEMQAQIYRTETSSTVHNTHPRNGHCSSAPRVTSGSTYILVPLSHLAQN
# Assay: HTRF assay for measuring cAMP in cells (FSH antagonism)
# Format: cell-based
# Details: FSH-antagonistic effect; CHO cells stably transfected with the human FSH receptor (hFSHR clone 16); in the presence of 1 e-9 mol/l hFSH; 37°C for 2h
# Protocol: HTRF assay for measuring cAMP in cells
# The method is based on a competitive immunoassay between native cAMP, which has been produced by the cells, and cAMP which is labelled with XL665. The tracer binding was visualized by a monoclonal antibody, anti-cAMP labelled with cryptate [HTRF = homogeneous time-resolved fluorescence].
# The specific signal is inversely proportional to the cAMP concentration of the samples employed.
# The 665nm/ 620nm fluorescence ratio was evaluated.
# The following material was used: 96-well plates for the tissue culture, 96-well plates with black edge and black base (e.g. Fluotrac 600 from Greiner), 96-well plates for the substance dilutions of polypropylene and cAMP Femtomolar (4000wells Kit, CIS Bio International # 62AM1PEC).
# The following reagents were used: BSA (bovine serum albumin) Fraction V protease-free, IBMX (3-isobutyl-1-methylxanthine), hFSH (human follicle stimulating hormone), Triton X-100 analytical grade, potassium fluoride analytical grade, G 418 (Geneticin) and Accutase.
# Buffer 1 (washing and testing buffer) contained PBS, 1 mM CaCl2, 1 mM MgCl2, 0.2% glucose; 0.1% BSA, 1 mM IBMX.
# Buffer 2 (2x lysis buffer) contained 1% Triton X-100 in PBS (without CaCl2 and MgCl2).
# Buffer 3 (assay buffer) contained 50 mM potassium phosphate buffer (pH 7.0); 800 mM potassium fluoride; 0.2% BSA (always added fresh).
# On day 1, the cells were seeded in 96-well plates (3x10^4 cells per well hFSHR clone 16 cells (CHO cells stably transfected with the human FSH receptor in 150 µl of medium). The next day, test substance dilutions were made up. For this purpose, all the substances were diluted in ice-cold buffer 1 (with or without hFSH), and the substance dilutions were placed on ice until applied to the cells.
# The cell supernatant was then aspirated off, and the cells were washed 2x with 200 µl of buffer 1. The cells were treated with 60 µl of the appropriate substance concentrations at 37°C for 2h. The cells were then lysed with 60 µl of buffer 2 (put onto the supernatant) (on a plate shaker at RT for 30 min).
# The test conjugates (XL-665 and anti-cAMP cryptate) were diluted in buffer 3 in accordance with the manufacturers' information. The actual mixture for measurement was pipetted into a black 96-well plate (in each case 15 µl of the cell lysate diluted with 35 µl of buffer 1; firstly 25 µl of XL-665 conjugate were pipetted and, after 10 min, 25 µl of the anti-cAMP cryptate were added). This is followed by incubation at RT for 90 minutes. The measurement was carried out in a PheraStar (BMG).
# Tissue culture conditions
# • 1) hFSHr clone 16 Ham's F12 PSG 10% FCS 700 µg/ml G 418 (Geneticin) from PAA.
# Dose-effect curve (hFSH) for the human receptor: 1 e-8, 3e-9, 1 e-9, 3e-10, 1 e-1 0, 3e-11, 1 e-11, 3e-12 mol/l.
# The test substances were employed in suitable dilutions in the absence (test for agonism) and in the presence of 1 e-9 mol/l hFSH.
# The values of the well ratio were averaged and then entered directly in SigmaPlot versus the concentrations. The maximum and minimum values were determined for each plate, and half the difference is to be regarded as IC50.
row,SMILES,IC50 [µM]
1,"COc1ccc2nc(-c3ccccc3)cc(C(=O)NC3(CO)CCc4[nH]c5cc(Cl)c(F)cc5c4C3)c2c1 (centres unmarked) [Example 13, 6-Methoxy-2-phenyl-quinoline-4-carboxylic acid (7-chloro-6-fluoro-3-hydroxymethyl-2,3,4,9-tetrahydro-1 H-carbazol-3-yl)-amide]",8
2,"COc1ccc(-c2ccc(OC(C)C)c(C(=O)NC3(CO)CCc4[nH]c5c(C)ccc(C)c5c4C3)c2)cc1OC (centres unmarked) [Example 19, 4-Isopropoxy-3',4'-dimethoxy-biphenyl-3-carboxylic acid (3-hydroxymethyl-5,8-dimethyl-2,3,4,9-tetrahydro-1H-carbazol-3-yl)-amide]",4
3,"CNC(=O)c1ccc(-c2ccc(OC(C)C)c(C(=O)NC3(CO)CCc4[nH]c5c(Cl)ccc(Cl)c5c4C3)c2)cc1Cl (centres unmarked) [Example 25, 3'-Chloro-4-isopropoxy-biphenyl-3,4'-dicarboxylic acid 3-[(5,8-dichloro-3-hydroxymethyl-2,3,4,9-tetrahydro-1 H-carbazol-3-yl)-amide] 4'-methyl-amide]",0.9
4,"CNC(=O)c1ccc(-c2ccc(OC(C)C)c(C(=O)NC3(CO)CCc4[nH]c5c(Cl)cccc5c4C3)c2)cc1Cl (centres unmarked) [Example 30, 3'-Chloro-4-isopropoxy-biphenyl-3,4'-dicarboxylic acid 3-[(8-chloro-3-hydroxymethyl-2,3,4,9-tetrahydro-1H-carbazol-3-yl)-amide] 4'-methylamide]",0.2
5,"CNC(=O)c1ccc(-c2ccc(OC(C)C)c(C(=O)NC3(CO)CCc4[nH]c5ccc(C)cc5c4C3)c2)cc1Cl (centres unmarked) [Example 32, 3'-Chloro-4-isopropoxy-biphenyl-3,4'-dicarboxylic acid 3-[(3-hydroxymethyl-6-methyl-2,3,4,9-tetrahydro-1H-carbazol-3-yl)-amide] 4'-methylamide]",3

# More lines, now with the values ahead:
row,IC50 [µM],SMILES
1,0.07,"CNC(=O)c1ccc(-c2ccc(OC(C)C)c(C(=O)NC3(CO)CCc4[nH]c5ccc(F)cc5c4C3)c2)cc1Cl (centres unmarked) [Example 33, 3'-Chloro-4-isopropoxy-biphenyl-3,4'-dicarboxylic acid 3-[(6-fluoro-3-hydroxymethyl-2,3,4,9-tetrahydro-1H-carbazol-3-yl)-amide] 4'-methylamide]"
2,1.5,"CNC(=O)c1ccc(-c2ccc(OC(C)C)c(C(=O)NC3(CO)CCc4[nH]c5ccc(Cl)cc5c4C3)c2)cc1Cl (centres unmarked) [Example 34, 3'-Chloro-4-isopropoxy-biphenyl-3,4'-dicarboxylic acid 3-[(6-chloro-3-hydroxymethyl-2,3,4,9-tetrahydro-1 H-carbazol-3-yl)-amide] 4'-methylamide]"
3,0.75,"Cc1ccc2[nH]c3c(c2c1Cl)CC(CO)(NC(=O)c1cc(-c2cc4ccccc4o2)ccc1OC(C)C)CC3 (centres unmarked) [Example 40, 5-Benzofuran-2-yl-N-(5-chloro-3-hydroxymethyl-6-methyl-2,3,4,9-tetrahydro-1H-carbazol-3-yl)-2-isopropoxy-benzamide]"
